Data taken from patent publication US20210196714A1, “COMPOSITIONS AND METHODS FOR TREATING DISORDERS CHARACTERIZED WITH ABERRANT RAS/MAPK SIGNALING” (Duke University, priority 2018, published 2021).
“Also recorded” adds a separate entry of the source. One block for each molecule: values may come before it.

Assays:
[1] = Mass spectrometry of compound exposure in zebrafish embryos; assay type: in vivo; settings: for detection of compound in embryos by MS: bathing, 100 nM or 1 μM, five days
Procedure: FIG. 5: Successful delivery of small molecules into zebrafish embryos. (a) Experimental design and sample preparation for the mass spectrometry (MS) analysis of compound concentration. (b) Quantitative MS analysis results of compound exposure in embryos. The right-most two columns give the concentrations of each compound detected by MS in zebrafish, quantifying in vivo exposures resulting from egg water compound doses of 100 nM and 1 μM.
For this purpose, mass spectrometry (MS) was performed in embryos treated with each of compounds 2 and 8. Wild-type embryos were treated with 100 nM (the concentration used for the rescue experiments) or 1 μM (as a positive detection threshold given that the intracellular concentration of each compound is unknown at the beginning of the experiment). After five days of treatment, embryos were harvested and subjected to MS analysis (FIG. 5A).
WT EK embryos were transferred to a 12-well plate at the 8-cell stage and bathed in egg water containing 0.001% DMSO or 100 nM of each compound (n=30/condition). Embryos were incubated at 28° C.; egg water containing compound was refreshed every 24 hours until harvest. Compound exposure was assessed essentially as described (see, Berghmans, S. et al. J Pharmacol Toxicol Methods 58, 59-68 (2008)); larvae were anaesthetized on ice, washed once with fresh compound-free ice-cold egg water, washed once with ice-cold PBS, and then transferred to a microfuge tube and centrifuged briefly before removing all excess liquid. Samples were macerated using a plastic pestle and frozen at −20° C. prior to analysis. Mass spectrometry analysis was conducted at Covance Laboratories (Cary, N.C., USA). Briefly, the macerated larvae were diluted in 1 ml water/acetonitrile (50/50), sonicated for 3×10 s and vortexed. For all compounds, a control sample containing embryos exposed to 0.001% DMSO was analyzed as a control. Calibration curves were generated by spiking aliquots of control zebrafish homogenate (prepared as described above) with known amounts of compound 29 (N3521-4-2).

rap1-CRISPR embryos = experiment: Jaw defect (MK-CH distance) in rap1-CRISPR embryos; assay type: in vivo, zebrafish; settings: rap1 F0 CRISPR mutant, 100 nM, 5 dpf
Procedure: (§1) FIG. 4: Compound 8 ameliorates the CE and jaw defects caused by loss of rap/and kdm6a. (a) gRNA targeting both zebrafish rap1a and rap1b were injected into embryos at the 1-cell stage with Cas9 protein. Larvae were incubated with compound 8 (100 nM) at the 8-cell stage and scored for micrognathia. 5 dpf larvae were stained with Alcian blue to assess the layout of the jaw cartilage. In comparison to control embryos (top), rap1-CRISPR embryos have smaller jaws. […] (b) Quantitative measurement of the distance between MK and CH cartilages. (c) Larvae were scored for CE (n>30 for each concentration). (d) 5 dpf embryos were stained with Alcian blue to assess the layout of jaw cartilage. […] (e) Quantitative measurement of the distance between MK and CH cartilages. *p<0.05; ***p<0.001. […]
(§2) For convergence and extension (CE) phenotyping, embryos were scored as described (see, Leitch, C. C. et al. Nat Genet 40, 443-8 (2008)) at the 8-10 somite stage, and images were captured using an AZ100 microscope and NIS Elements software (Nikon). […] The distance between Meckel's (MK) and ceratohyal (CH) cartilages was measured on ventral bright field images with Image J (NIH). […] Fluorescence signal on embryo heads was imaged with the Nikon AZ100 microscope and DS-Qi1MC digital camera using […] Z-stacks to generate extended depth of focus images. Cell numbers were quantified using the ImageJ ICTN plugin (NIH). […]

kdm6a-MO embryos = experiment: Jaw defect (MK-CH distance) in kdm6a-MO embryos; assay type: in vivo, zebrafish; settings: kdm6a morphant, 5 dpf
Procedure: as §1, §2

detection of compound in embryos by MS [1]: Detectable concentrations
SMILES: CC[C@@H](CO)Nc1ncc(C)c(-c2c[nH]c(C(=O)N[C@H](CO)c3cccc(Cl)c3)c2)n1 [Compound 2, N-((S)-1-(3-chlorophenyl)-2-hydroxyethyl)-4-(2-(((S)-1-hydroxybutan-2-yl)amino)-5-methylpyrimidin-4-yl)-1H-pyrrole-2-carboxamide]
jaw length / MK-CH distance (rap1-CRISPR embryos): can be ameliorated; also recorded: restored significantly the jaw length of morphants and mutants to nearly wild type levels
jaw length / MK-CH distance (kdm6a-MO embryos): restored significantly the jaw length of morphants and mutants to nearly wild type levels

SMILES: CC(C)c1nc(-c2cccc(NS(=O)(=O)c3c(F)cccc3F)c2F)c(-c2ccnc(N)n2)s1 [Compound 8, desmethyl-Dabrafenib]
exposure of inhibitor in embryos (MS quantitation) ([1]; 100 nM dose): sub-nanomolar
concentration at 5 days ([1]; EK (wild-type), zebrafish, whole embryo/larva homogenate, other: bathing in egg water containing compound, egg water dose 100 nM, read-out: effective in vivo exposure (MS)): 0.26 nM
detection of compound in embryos by MS [1]: Detectable concentrations
jaw length / MK-CH distance (rap1-CRISPR embryos): can be ameliorated; also recorded: restored significantly the jaw length of morphants and mutants to nearly wild type levels
jaw length / MK-CH distance (kdm6a-MO embryos): can be ameliorated; also recorded: restored significantly the jaw length of morphants and mutants to nearly wild type levels
